Results taken from US6906205B2, “Spiro and dispiro 1,2,4-trioxolane antimalarials” (Medicines for Malaria Venture MMV, priority 2002, dated 2005).
Values after ≈ are worked out from the molar mass of the structure shown.

Experiments:
[1] = test system: P. falciparum K1 strain (Thailand resistant to chloroquine); experiment: semiautomated microdilution assay, [3H]-hypoxanthine incorporation, K1 strain; format: cell-based, Plasmodium falciparum; conditions: K1 strain, 72 h incubation
In short: (§1)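 Compounds were tested against intraerythrocytic parasites taken from asynchronous stock cultures, using semiautomated microdilution. IC50 values were estimated by logit regression analysis.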

[2] = test system: P. falciparum NF54 strain (sensitive to standard antimalarials); experiment: semiautomated microdilution assay, [3H]-hypoxanthine incorporation, NF54 strain; format: cell-based, Plasmodium falciparum; conditions: NF54 strain, 72 h incubation
In short: as §1

[3] = test system: ANKA strain of P. berghei; experiment: single dose STI in vivo screen in infected mice; parameters: species or system Plasmodium berghei; conditions: for Activity (%) po / Activity (%) sc / Activity (%) SSVpo: percent reduction in parasitemia day 3 post-infection, mice; for Activity (%) po / Survival (days) po: single 10 mg/kg po in 3% ethanol and 7% Tween 80; for Activity (%) sc / Survival (days) sc: single 10 mg/kg sc in 3% ethanol and 7% Tween 80; for Activity (%) SSVpo: single po dose in standard suspending vehicle (SSV); for Survival (days) po / Survival (days) sc / Survival (days) SSVpo: untreated control 5.6 ± 0.3; for Survival (days) SSVpo: single po dose in SSV
In short: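 Groups of 3-5 Moro SPF or NMRI mice infected with the ANKA strain of P. berghei received a single dose of trioxolane on day one post-infection. The compound was given in 3% ethanol and 7% Tween 80 or in SSV (0.5% w/v CMC, 0.5% v/v benzyl alcohol, 0.4% v/v Tween 80, 0.9% w/v sodium chloride in water). Antimalarial activity was scored as percent reduction in parasitemia on day three and as survival time versus untreated controls. Survival to day 30 counted as cure.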

| SMILES | IC50 (ng/ml) K1 [1] [ng/mL] | IC50 (ng/ml) NF54 [2] [ng/mL] | Activity (%) po [3] [%] | Activity (%) sc [3] [%] | Activity (%) SSVpo [3] [%] | Survival (days) po [3] [days] | Survival (days) sc [3] [days] | Survival (days) SSVpo [3] [days] | Activity (%) po ([3]; 10 mg/kg) [%] | Activity (%) sc ([3]; 10 mg/kg) [%] | Survival (days) po ([3]; 10 mg/kg) [days] | Survival (days) sc ([3]; 10 mg/kg) [days] |
| --- | --- | --- | --- | --- | --- | --- | --- | --- | --- | --- | --- | --- |
| N=C(N)NN=C1CCC2(CC1)OOC1(O2)C2CC3CC(C2)CC1C3 (stereo not drawn) [OZ172] | 3.5 (≈ 0.0105 µM) | 5.0 (≈ 0.015 µM) | 68 | 100 | 82 | 8.0 | 10.3 | 10.3 |  |  |  |  |
| COCC(=O)N(Cc1ccccc1)C1CCC2(CC1)OOC1(O2)C2CC3CC(C2)CC1C3 (stereo not drawn) [OZ173] | 58 (≈ 0.131 µM) | 32 (≈ 0.0725 µM) | 15 | 80 | 0 | 7.0 | 9.7 | 6.7 |  |  |  |  |
| COCC(=O)N(C1CCCCC1)C1CCC2(CC1)OOC1(O2)C2CC3CC(C2)CC1C3 (stereo not drawn) [OZ174] | 27 (≈ 0.0623 µM) | 34 (≈ 0.0784 µM) | 0 | 90 | 15 | 6.7 | 10.3 | 7.3 |  |  |  |  |
| O=C(O)c1ccc(OC[C@H]2CC[C@]3(CC2)OOC2(O3)C3CC4CC(C3)CC2C4)cc1 (stereo partly drawn) [OZ176] | 25 (≈ 0.0603 µM) | 35 (≈ 0.0844 µM) | 11 | 24 | 18 | 7.0 | 7.0 | 7.7 |  |  |  |  |
| CS(=O)(=O)c1ccc([C@H]2CC[C@]3(CC2)OOC2(O3)C3CC4CC(C3)CC2C4)cc1 (stereo partly drawn) [OZ178] | 21 (≈ 0.0502 µM) | 27 (≈ 0.0645 µM) | 32 | 31 | 23 | 7.3 | 10.0 | 7.3 |  |  |  |  |
| CC1(C)COC(c2ccc([C@H]3CC[C@]4(CC3)OOC3(O4)C4CC5CC(C4)CC3C5)cc2)=N1 (stereo partly drawn) [OZ180] | 3.7 (≈ 0.00846 µM) | 2.8 (≈ 0.0064 µM) |  |  | 97 |  |  | 12.7 | 99.91 | 65 | 13.7 | 10.3 |
| O=C(OCCn1ccnc1)C1CCC2(CC1)OOC1(O2)C2CC3CC(C2)CC1C3 (stereo not drawn) [OZ182] | 4.5 (≈ 0.0112 µM) | 5.5 (≈ 0.0137 µM) | 91 | 95 | 96 | 8.0 | 7.7 | 7.3 |  |  |  |  |
| O=C(NO)c1ccc([C@H]2CC[C@]3(CC2)OOC2(O3)C3CC4CC(C3)CC2C4)cc1 (stereo partly drawn) [OZ183] | 0.80 (≈ 0.002 µM) | 2.1 (≈ 0.00526 µM) | 65 | 81 | 19 | 6.0 | 8.3 | 6.0 |  |  |  |  |
| C1CC1CNC1CCC2(CC1)OOC1(O2)C2CC3CC(C2)CC1C3 (stereo not drawn) [OZ184] | 1.0 (≈ 0.003 µM) | 1.4 (≈ 0.0042 µM) | 54 | 97 | 59 | 6.7 | 8.7 | 7.0 |  |  |  |  |
